Experiment [1] addresses T1, human plasma kallikrein (Homo sapiens (Human), UniProt P03952). Conditions: human plasma kallikrein 25 pM, substrate 0.5 uM, 1 hour pre-incubation at room temperature, read at t=60 min.
The target in experiment [2] is T1, human plasma kallikrein. The experiment in a line: biochemical. Conditions: for inhibition at 100 µM: read-out: % inhibition at 100 μM.

SMILES strings stand for the structures. Read-outs that look alike come from different tables or passages of the source.

T1 sequence (P03952 whole entry, looked up): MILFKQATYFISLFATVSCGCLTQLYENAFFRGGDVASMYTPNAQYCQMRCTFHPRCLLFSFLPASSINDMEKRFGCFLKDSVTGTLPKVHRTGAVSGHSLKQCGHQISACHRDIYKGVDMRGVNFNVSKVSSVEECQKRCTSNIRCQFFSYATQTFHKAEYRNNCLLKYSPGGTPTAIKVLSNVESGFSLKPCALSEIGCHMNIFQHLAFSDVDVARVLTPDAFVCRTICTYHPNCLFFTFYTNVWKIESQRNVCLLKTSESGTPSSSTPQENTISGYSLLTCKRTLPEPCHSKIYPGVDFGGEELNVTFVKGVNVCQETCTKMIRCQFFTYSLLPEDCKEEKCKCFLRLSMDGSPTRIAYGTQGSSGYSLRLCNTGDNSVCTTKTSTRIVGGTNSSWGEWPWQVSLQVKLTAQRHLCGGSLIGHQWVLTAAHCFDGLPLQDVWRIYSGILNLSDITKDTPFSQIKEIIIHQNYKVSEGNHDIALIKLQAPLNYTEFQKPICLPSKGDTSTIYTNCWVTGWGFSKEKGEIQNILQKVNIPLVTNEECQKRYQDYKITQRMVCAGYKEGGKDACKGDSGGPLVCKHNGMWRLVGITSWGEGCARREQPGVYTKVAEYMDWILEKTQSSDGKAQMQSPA
T1 sequence (P03952 whole entry partner, looked up): as the sequence (P03952 whole entry, looked up) above

As for `Nc1ccc(CNC(=O)c2cnn(Cc3ccccc3)c2)cn1` [Example 182, N-((6-Aminopyridin-3-yl)methyl)-1-benzyl-1H-pyrazole-4-carboxamide], at human plasma kallikrein [1], the IC50 is > 100 µM. Besides, the inhibition at 100 µM at human plasma kallikrein [2] was determined as 38%.

Regarding `Cc1cc(N)nc(C)c1CNC(=O)c1cnn(Cc2cccc(CO)n2)c1` [Example 99, N-((6-amino-2,4-dimethylpyridin-3-yl)methyl)-1-((6-(hydroxymethyl)pyridin-2-yl)methyl)-1H-pyrazole-4-carboxamide], inhibition against human plasma kallikrein [2] was half-maximal at 7 µM (IC50). This lies in the single-digit micromolar range.

Molecule `Cc1cc(N)nc(C)c1CNC(=O)c1cnn(Cc2nc3ccccc3nc2C)c1` [Example 104, N-((6-amino-2,4-dimethylpyridin-3-yl)methyl)-1-((3-methylquinoxalin-2-yl)methyl)-1H-pyrazole-4-carboxamide] had an IC50 against human plasma kallikrein [2] of 0.113 µM.

On to `Cc1cc(N)nc(C)c1CNC(=O)c1cnn(Cc2ccc3ncc(Cl)cc3c2)c1` [Example 173, N-((6-Amino-2,4-dimethylpyridin-3-yl)methyl)-1-((3-chloroquinolin-6-yl)methyl)-1H-pyrazole-4-carboxamide], for which the concentration for half-maximal inhibition (IC50) on human plasma kallikrein [2] was 0.0004 µM.

`Cc1cc(N)nc(C)c1CNC(=O)c1c(C)c(C)n(S(=O)(=O)c2ccccc2)c1C` [Example 183, N-((6-Amino-2,4-dimethylpyridin-3-yl)methyl)-2,4,5-trimethyl-1-(Phenylsulfonyl)-1H-pyrrole-3-carboxamide]: the IC50 on human plasma kallikrein [1] was > 100 µM. On human plasma kallikrein [2], the inhibition at 100 µM was found to be 39%.

One may read the IC50 as the concentration that gives 50% inhibition. For orientation: inhibition means the relative decrease from the control value, in per cent.

For the origin of these results see patent US9290485B2, “N-((6-amino-pyridin-3-yl)methyl)-heteroaryl-carboxamides” (NOVARTIS AG, priority 2010, dated 2016).
